Data as given in patent US20200087248A1, “Fluoroallylamine Derivative And Use Thereof” (SICHUAN KELUN-BIOTECH BIOPHARMACEUTICAL CO., LTD., priority 2017, published 2020).
Counter-ions that a name gives are not always drawn.

How the values were obtained:
VAP-1 = target: T1, VAP-1 (Homo sapiens, UniProt Q16853); assay: Inhibition of the enzymatic activity of VAP-1 in vitro (Amplex Red); assay type: biochemical; conditions: VAP-1 protein about 20 nM, 10 min pre-incubation, benzylamine substrate; read-out: IC50, inhibition against the enzymatic activity of VAP-1
T1 construct: purchased R&D Systems
T1 sequence (Q16853 1-763): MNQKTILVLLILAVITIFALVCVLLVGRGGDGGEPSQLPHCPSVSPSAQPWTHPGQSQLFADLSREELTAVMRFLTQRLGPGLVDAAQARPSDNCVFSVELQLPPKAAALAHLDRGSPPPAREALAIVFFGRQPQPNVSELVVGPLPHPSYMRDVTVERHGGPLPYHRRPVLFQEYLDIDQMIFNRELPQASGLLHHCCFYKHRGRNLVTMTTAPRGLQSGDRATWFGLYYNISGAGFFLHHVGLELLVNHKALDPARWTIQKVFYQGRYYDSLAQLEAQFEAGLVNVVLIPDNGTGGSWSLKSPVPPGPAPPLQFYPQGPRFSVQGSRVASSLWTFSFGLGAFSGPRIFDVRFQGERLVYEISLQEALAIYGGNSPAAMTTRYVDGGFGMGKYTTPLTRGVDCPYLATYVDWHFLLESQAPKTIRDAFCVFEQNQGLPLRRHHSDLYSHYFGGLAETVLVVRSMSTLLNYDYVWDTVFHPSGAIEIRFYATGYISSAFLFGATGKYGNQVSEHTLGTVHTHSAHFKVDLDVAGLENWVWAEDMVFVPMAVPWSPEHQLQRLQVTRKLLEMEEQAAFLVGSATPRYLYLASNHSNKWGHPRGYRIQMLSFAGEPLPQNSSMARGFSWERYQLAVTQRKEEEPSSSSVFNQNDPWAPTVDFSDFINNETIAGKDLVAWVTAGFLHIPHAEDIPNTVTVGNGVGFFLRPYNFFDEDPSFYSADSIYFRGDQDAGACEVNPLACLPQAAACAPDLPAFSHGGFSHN
Procedure, shortened: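 About 20 nM recombinant VAP-1 preincubated with compound 10 min at RT in 50 mM PBS pH 7.4; reaction started with […] benzylamine, 1 U/mL HRP and 200 μM Amplex Red. Kinetic fluorescence (Ex/Em 540/590 nm) slope gave rate; IC50 by four-parameter fit.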

DAO = target: T2, DAO (Homo sapiens, UniProt P19801); assay: Inhibition of the enzymatic activity of DAO; assay type: biochemical; conditions: DAO 15 μg/ml, histamine substrate; read-out: IC50, inhibition against the enzymatic activity of DAO
T2 construct: purchased R&D Systems
T2 sequence (P19801 20-751): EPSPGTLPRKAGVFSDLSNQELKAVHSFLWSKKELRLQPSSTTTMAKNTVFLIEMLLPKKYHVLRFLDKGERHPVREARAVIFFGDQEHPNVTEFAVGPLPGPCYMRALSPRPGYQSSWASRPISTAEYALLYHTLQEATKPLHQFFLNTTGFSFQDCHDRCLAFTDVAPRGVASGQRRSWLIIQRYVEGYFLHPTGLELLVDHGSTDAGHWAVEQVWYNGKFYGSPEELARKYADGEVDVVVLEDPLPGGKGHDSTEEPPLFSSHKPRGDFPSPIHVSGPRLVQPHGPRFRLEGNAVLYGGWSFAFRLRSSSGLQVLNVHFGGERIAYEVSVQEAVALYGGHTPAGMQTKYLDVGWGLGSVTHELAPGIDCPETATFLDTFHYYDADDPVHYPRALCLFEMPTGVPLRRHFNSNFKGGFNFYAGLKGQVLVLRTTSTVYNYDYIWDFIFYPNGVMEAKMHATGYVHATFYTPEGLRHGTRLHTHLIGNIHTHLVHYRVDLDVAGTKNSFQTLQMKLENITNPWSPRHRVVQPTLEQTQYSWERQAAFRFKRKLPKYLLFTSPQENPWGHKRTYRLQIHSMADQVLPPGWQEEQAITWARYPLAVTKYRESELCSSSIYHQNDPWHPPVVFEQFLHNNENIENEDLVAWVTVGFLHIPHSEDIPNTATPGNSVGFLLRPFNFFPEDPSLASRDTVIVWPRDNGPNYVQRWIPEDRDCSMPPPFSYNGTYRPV
Method: Inhibition Experiment Against the Enzymatic Activity of DAO (Diamine Oxidase)
1. Test kit: Amplex® Red Monoamine Oxidase Assay, Manufacturer: ThermoFisher
Protein: DAO, manufacturer: R&D Systems
DAO protein (15 μg/ml) and different concentrations of the test compound were pre-incubated at room temperature for 20 minutes, and then 100 μM Histamine-dihydrochloride, 1 U/mL HRP and 200 μM Amplex Red reagent were added to start the reaction. The inhibition rate of each concentration groups were calculated according to the experimental method of MAO-A.

| Compound | IC50 (VAP-1) [nM] | IC50 (DAO) [nM] |
| --- | --- | --- |
| (E)-6-((2-(methylamino)-3-fluoroallyl)oxy)-2-methyl-3,4-dihydroisoquinolin-1(2H)-one trifluoroacetate [TM66-E] | 2 ± 0.4 | > 100 |
| NC/C(=C\F)COc1ccc(C(=O)NC2CCOCC2)cc1 [TM76-E, (E)-N-(tetrahydro-2H-pyran-4-yl)-4-((2-aminomethyl-3-fluoroallyl)oxy)-benzamide trifluoroacetate] | 4.3 ± 0.6 | > 100 |
| (E)-6-((2-(methylamino)-3-fluoroallyl)oxy)-3,3-dimethyl-3,4-dihydro-isoquinolin-1(2H)-one trifluoroacetate [TM38-E] | 4.7 ± 1.1 | > 1000 |
| NC/C(=C\F)COc1ccc(C(=O)Nc2ccccc2)cc1 [TM1-E, (E)-N-phenyl-4-((2-aminomethyl-3-fluoroallyl)oxy)-benzamide trifluoroacetate] | 1.6 ± 0.2 | > 100 |
| NC/C(=C\F)COc1ccc2c(c1)C(=O)CC2 [TM7-E, (E)-6-((2-aminomethyl-3-fluoroallyl)oxy)-2,3-dihydro-1-indenone trifluoroacetate] | 3 ± 0.7 | > 1000 |
| NC/C(=C\F)COc1ccc(-c2ncccn2)cc1 [TM39-E, (E)-2-(4-(2-pyrimidyl)phenoxymethyl)-3-fluoroallylamine trifluoroacetate] | 1.2 ± 0.2 | – |
| CC1(C)Cc2cc(OC/C(=C/F)CN)ccc2C(=O)N1 [HC38-E, (E)-6-((2-(aminomethyl)-3-fluoroallyl)oxy)-3,3-dimethyl-3,4-dihydroisoquinolin-1(2H)-one hydrochloride] | 2.85 ± 0.3 | – |
| NC/C(=C/F)COc1ccc(C(=O)NCc2ccccn2)cc1 [TM112-Z, (Z)-4-((2-aminomethyl-3-fluoroallyl)oxy)-N-(pyridin-2-ylmethyl)benzamide trifluoroacetate] | 6.5 ± 1.8 | > 100 |
| NC/C(=C/F)COc1ccc2c(c1)CCNC2=O [TM26-Z, (Z)-6-((2-aminomethyl-3-fluoroallyl)oxy)-3,4-dihydroisoquinolin-1(2H)-one trifluoroacetate] | 3.7 ± 0.8 | – |
